# Target: T1, protein tyrosine phosphatase 1B (PTP1B) (Homo sapiens, UniProt P18031)
# T1 construct: gene PTPN1; PTP1B1-321
# T1 sequence (P18031 1-321): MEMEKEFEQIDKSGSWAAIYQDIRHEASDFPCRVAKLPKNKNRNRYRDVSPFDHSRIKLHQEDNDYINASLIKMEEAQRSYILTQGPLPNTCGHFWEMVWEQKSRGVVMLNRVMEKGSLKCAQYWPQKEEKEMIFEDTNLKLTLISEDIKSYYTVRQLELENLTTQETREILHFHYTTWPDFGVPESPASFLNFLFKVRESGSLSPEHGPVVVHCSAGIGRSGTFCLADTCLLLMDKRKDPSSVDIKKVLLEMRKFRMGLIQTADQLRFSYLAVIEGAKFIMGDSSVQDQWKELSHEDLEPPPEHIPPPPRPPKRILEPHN
# Test: pNPP hydrolysis assay with recombinant human PTP1B, absorbance at […] nm
# Format: biochemical
compound,measurement,value
"Oc1cc(Cc2cc(O)c(O)c(Br)c2Cc2cc(O)c(O)c(Br)c2Br)c(Br)c(Br)c1O [CYC31, 3-bromo-4,5-Bis(2,3-dibromo-4,5-dihydroxybenzyl)-1,2-benzenediol]","pNPP hydrolysis assay with recombinant human PTP1B, absorbance at 405 nm","As shown in Figure 1B, PTP1B was significantly inactivated by CYC31 in a concentration-dependent manner."
